The record followed here is patent US8901120B2, “Substituted N-phenylpyrimidin-2-amine analogs as inhibitors of the Axl kinase” (University of Utah Research Foundation, priority 2011, dated 2014).

pIC50: −log10 of the molar value.

The first assay deals with T1, recombinant human Axl kinase (catalytic domain, amino acids 473-894) (Homo sapiens, UniProt P30530).
T1 construct: catalytic domain, amino acids 473-894; purchased Invitrogen Corporation, Carlsbad, Calif
T1 sequence (P30530 473-894): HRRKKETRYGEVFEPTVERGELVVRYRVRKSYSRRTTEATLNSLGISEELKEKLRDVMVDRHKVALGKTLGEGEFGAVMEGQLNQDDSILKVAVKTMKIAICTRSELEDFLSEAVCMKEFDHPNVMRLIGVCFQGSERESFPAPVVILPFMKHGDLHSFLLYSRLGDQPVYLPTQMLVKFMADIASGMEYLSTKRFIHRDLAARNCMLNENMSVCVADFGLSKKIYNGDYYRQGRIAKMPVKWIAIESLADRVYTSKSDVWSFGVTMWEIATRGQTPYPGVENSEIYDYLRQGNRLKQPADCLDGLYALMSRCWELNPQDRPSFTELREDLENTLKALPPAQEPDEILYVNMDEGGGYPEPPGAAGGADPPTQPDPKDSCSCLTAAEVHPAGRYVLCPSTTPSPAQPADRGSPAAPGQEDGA
Kind of assay: Axl kinase activity assay (TR-FRET, fluorescein poly-GT substrate). As to conditions: 20 μM ATP, 93 ng/ml Axl kinase, 60 min; read-out: IC50 (Axl kinase activity). It is filed as biochemical. As for the experimental part:
Test compounds were diluted to desired concentrations in kinase reaction buffer (50 mM HEPES pH 7.5, 10 mM MgCl2, 1 mM EGTA, 2 mM DTT, and 0.01% v/v Tween-20) and were briefly incubated with Axl kinase (Invitrogen Corporation, Carlsbad, Calif.). The Axl kinase used was recombinant human Axl kinase (catalytic domain, amino acids 473-894) with a histidine tag. The reaction was initiated by the addition of ATP and fluorescein-labeled poly-GT substrate (poly Glu:Tyr, 4:1 polymer; Invitrogen). Concentration of the various components in the assay (10 μl reaction volume) were: 1% DMSO, 93 ng/ml Axl kinase, 20 μM ATP, and 200 nM fluorescein poly-GT substrate. Following addition of ATP and fluorescein poly-GT substrate, incubation was for 60 min at room temperature, the enzyme reaction is stopped by addition of 10 μl terbium-labeled anti-phosphotyrosine PY20 antibody in EDTA-containing buffer. Final concentration of EDTA and antibody after addition to the reaction is 10 mM and 2 nM, respectively. The terbium conjugated antibody generates a time-resolved FRET signal with the fluorescein molecule (bound to the poly-GT substrate) when the substrate is phosphorylated. After one hour incubation at room temperature, fluorescence was measured with excitation of 320 nm and dual emission of 495 and 520 urn on an EnVision microplate reader (PerkinElmer). Signal is expressed in terms of a TR-FRET ratio (fluorescence intensity at 520 nm to 495 nm).
IC50 values are determined using GraphPad Prism 5 software. The data were entered as an X-Y plot into the software as percent inhibition for each concentration of the drug. The concentration values of the drug were log transformed and the nonlinear regression was carried out using the “sigmoidal dose-response (variable slope)” option within the GraphPad software to model the data and calculate IC50 values.
For orientation: Time-resolved FRET reads energy transfer from a long-lived donor to a nearby acceptor.
As for `CN1CCN(Cc2ccc(Nc3ncc(C4CC4)c(-c4ccc(F)c(Cl)c4)n3)cc2)CC1` [Compound 26], the negative logarithm of the IC50 (pIC50) is 5.47. The same measure, in the same setting: next, `CC(=O)Nc1cccc(-c2nc(Nc3ccc(CN4CCN(C)CC4)cc3)ncc2C)c1` [Compound 22]: 5.64; `CN1CCN(Cc2ccc(Nc3nc(N)cc(-c4ccc(F)c(Cl)c4)n3)cc2)CC1` [Compound 29]: 4.24. Same read-out and setting: next, `CN1CCN(Cc2ccc(Nc3ncc(F)c(-c4ccc(F)cc4S(=O)(=O)N4CCCC4)n3)cc2)CC1` [Compound 16]: 5.94; `CN1CCN(Cc2ccc(Nc3ncc(Cl)c(-c4ccc(F)cc4S(=O)(=O)N(C)C)n3)cc2)CC1` [Compound 8]: 7.00; `CN1CCN(Cc2ccc(Nc3ncc(Cl)c(Nc4ccc(F)cc4S(=O)(=O)N4CCOCC4)n3)cc2)CC1` [Compound 10]: 6.62. The same measure, in the same setting: the value for `CN1CCN(Cc2ccc(Nc3ncc(Cl)c(Nc4ccc(Cl)cc4S(=O)(=O)N4CCCC4)n3)cc2)CC1` [Compound 15] was 5.97; that for `Cc1cnc(Nc2ccc(CN3CCN(C)CC3)cc2)nc1-c1cccc(S(C)(=O)=O)c1` [Compound 23] was 5.54. With `Cc1cnc(Nc2ccc(CN3CCN(C)CC3)cc2)nc1Oc1ccc(F)c(Cl)c1` [Compound 18], the negative-log IC50 (pIC50) is 5.85.

Take `Cc1ccc(-c2nc(Nc3ccc(CN4CCN(C)CC4)cc3)ncc2C)cc1C#N` [Compound 20]: the pIC50 was 5.74.

`Cc1cnc(Nc2ccc(CN3CCN(C)CC3)cc2)nc1-c1ccc(F)cc1` [Compound 21]: the pIC50 was 5.73. Take `Cc1cnc(Nc2ccc(CN3CCN(C)CC3)cc2)nc1-c1ccc(F)cc1S(=O)(=O)N1CCCC1` [Compound 24]: the pIC50 is 5.53.

Consider `CN1CCN(Cc2ccc(Nc3ncc(C(F)(F)F)c(Nc4ccccc4C(=O)N(C)C)n3)cc2)CC1` [Compound 31], for which the pIC50 is < 4.00. On the same count and under the same terms, the value for `CN1CCN(Cc2ccc(Nc3ncc(Cl)c(Nc4ccc(O)cc4S(=O)(=O)N4CCCC4)n3)cc2)CC1` [Compound 17] was 5.88; that for `COc1cccc(-c2nc(Nc3ccc(CN4CCN(C)CC4)cc3)ncc2C)c1` [Compound 19] was 5.79; that for `Cc1cnc(Nc2ccc(CN3CCN(C)CC3)cc2)nc1-c1cccc(OC(F)(F)F)c1` [Compound 25] was 5.48. The same measure, in the same setting: the value for `Cc1cnc(Nc2ccc(CN3CCN(C)CC3)cc2)nc1Nc1ccc(F)c(Cl)c1` [Compound 30] was 4.20.

As to `Cc1cnc(Nc2ccc(CN3CCN(C)CC3)cc2)nc1-c1cc(Cl)cc(C(F)(F)F)c1` [Compound 28], the negative logarithm of the IC50 (pIC50) was 5.29. On the same count and under the same terms, the value for `CN1CCN(Cc2ccc(Nc3ncc(Cl)c(N(C)c4ccc(F)cc4S(=O)(=O)N4CCCC4)n3)cc2)CC1` [Compound 27] was 5.41.

Staying with this assay, now noted: tested in triplicate, FIG. 4A; read-out: IC50, inhibition of Axl activity.
As to `CN1CCN(Cc2ccc(Nc3ncc(Cl)c(Nc4ccccc4S(=O)(=O)N4CCCC4)n3)cc2)CC1` [5-chloro-N2-(4-((4-methylpiperazin-1-yl)methyl)phenyl)-N4-(2-(pyrrolidin-1-ylsulfonyl)phenyl)pyrimidine-2,4-diamine], the pIC50 is ~7.70.

As a reminder, the pIC50 is the IC50 on a negative log10 scale, so that one unit is a factor of ten.
